The source of these data is PubChem BioAssay (NCI).

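Cultured in 96-well plates, cells were exposed to test compound for 48 hours across five concentrations. GI50 = concentration required for 50% inhibition of growth. TGI marks complete inhibition of growth.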

Test systems include K-562 leukemia; BT-549 breast; UO-31 renal; SK-MEL-5 melanoma; HCT-15 colon; UACC-257 melanoma; PC-3 prostate; NCI-H226 lung; HS 578T breast; RPMI-8226 leukemia.
Common to all, as to experiment: NCI anticancer screen, dose series, 48 h

Regarding `CN(CCNC(=O)c1nn(C)c2c1Cc1ccccc1-2)CCNC(=O)c1nn(C)c2c1Cc1ccccc1-2`, the TGI in the test on K-562 leukemia was 29.6 µM; in the test with BT-549 breast, 30.9 µM; with UO-31 renal, 24.2 µM; with SK-MEL-5 melanoma, 24.5 µM; in the test on HCT-15 colon, 34.4 µM; in the test on UACC-257 melanoma, 27.5 µM. Also, the TGI in the test on PC-3 prostate amounted to 47.6 µM; with NCI-H226 lung, 34.5 µM.
In the case of `O=c1[nH]nc(-c2cccc([N+](=O)[O-])c2)[nH]1`, the TGI in the test on HS 578T breast, with K-562 leukemia, with BT-549 breast, in the test on UO-31 renal, in the test on RPMI-8226 leukemia and in the test on HCT-15 colon was above 100 µM each time. Also, the TGI in the test with UACC-257 melanoma, in the test with PC-3 prostate and in the test with NCI-H226 lung was above 100 µM throughout.
Turning to `C=CCSC1=N/C(=C\c2ccc(C)cc2)C(=O)N1CC=C`, the TGI with HS 578T breast is above 100 µM; with K-562 leukemia it was 44.9 µM; in the test on BT-549 breast, 81.6 µM; in the test on UO-31 renal it was 84.4 µM; with SK-MEL-5 melanoma, 27.3 µM; in the test on RPMI-8226 leukemia, 31.9 µM. In addition, the TGI was above 100 µM in the test on HCT-15 colon, 59.8 µM in the test on UACC-257 melanoma and 70 µM in the test with PC-3 prostate.
Take `O=C(OC[C@H]1C[C@H]2C(=O)OCCC[C@H]2O1)c1ccccc1`: the TGI in the test with HS 578T breast, with K-562 leukemia, in the test on UO-31 renal, with SK-MEL-5 melanoma, in the test with RPMI-8226 leukemia and in the test with HCT-15 colon was above 100 µM throughout. Also, the TGI in the test on UACC-257 melanoma, in the test with PC-3 prostate and in the test on NCI-H226 lung was above 100 µM each time.
On to `C#C[C@]1(O)CC[C@H]2[C@@H]3CCC4=C/C(=N/OC(=O)c5cccc6cc7ccccc7nc56)CC[C@@H]4[C@H]3CC[C@@]21CC`, for which the TGI in the test on HS 578T breast, with K-562 leukemia, in the test with BT-549 breast, in the test on SK-MEL-5 melanoma, with RPMI-8226 leukemia and in the test with HCT-15 colon was above 100 µM each time. Also, the TGI in the test with UACC-257 melanoma, in the test on PC-3 prostate and in the test on NCI-H226 lung was above 100 µM each time.
Turning to `O=C(NCC(O)COc1ccccc1)c1ccccc1O` (stereo not drawn), the TGI with K-562 leukemia, in the test with BT-549 breast, with UO-31 renal, in the test on SK-MEL-5 melanoma, in the test on RPMI-8226 leukemia and in the test on HCT-15 colon was above 100 µM in each case. Further, the TGI with UACC-257 melanoma, in the test on PC-3 prostate and in the test on NCI-H226 lung was above 100 µM in each case.
Regarding `Cc1cc2nc3c(N)nn(CCCN(C)C)c3nc2cc1C`, the TGI with HS 578T breast, in the test on BT-549 breast, in the test with UO-31 renal, in the test on SK-MEL-5 melanoma, with RPMI-8226 leukemia and with HCT-15 colon was above 100 µM each time. Further, the TGI in the test with UACC-257 melanoma and with PC-3 prostate was above 100 µM throughout.
Turning to `CC(=O)N(C(=O)CC(=O)N1N=C(C)C(N=Nc2cccc([N+](=O)[O-])c2)C1=O)c1ccc(Cl)cc1` (stereo not drawn), the TGI in the test on HS 578T breast, with K-562 leukemia, with BT-549 breast, with SK-MEL-5 melanoma, in the test on RPMI-8226 leukemia and in the test with HCT-15 colon was above 10 µM each time. The TGI in the test on UACC-257 melanoma and in the test on PC-3 prostate was above 10 µM throughout.
For `COC(=O)c1sc2c(c1C(=O)OC)C(=Nc1ccc(OC)cc1)SC2=Nc1ccc(OC)cc1`, the TGI with BT-549 breast amounted to 3.43 µM; in the test with UO-31 renal, 2.11 µM; in the test with SK-MEL-5 melanoma it was 2.54 µM; in the test on HCT-15 colon, 1.66 µM; with UACC-257 melanoma it was 2.75 µM; with PC-3 prostate it was 1.04 µM. In the test with NCI-H226 lung, this molecule displayed a TGI of 3.55 µM.
Turning to `C=CC[PH+](c1ccccc1)c1ccccc1.C=CC[PH+](c1ccccc1)c1ccccc1.[Pt+2].[S-]c1nc2ccccc2[nH]1.[S-]c1nc2ccccc2[nH]1`, the GI50 in the test with K-562 leukemia is 0.62 µM; with BT-549 breast, 2.11 µM; in the test with UO-31 renal, 2.58 µM; in the test with RPMI-8226 leukemia, 0.401 µM; in the test on HCT-15 colon it was 6.34 µM; in the test on PC-3 prostate it was 1.62 µM. The GI50 in the test on NCI-H226 lung is 1.95 µM. Moreover, the TGI with K-562 leukemia was above 100 µM; in the test on BT-549 breast, 5.54 µM; in the test on UO-31 renal it was 36.5 µM; in the test on RPMI-8226 leukemia, 3.22 µM; with HCT-15 colon, above 100 µM; with PC-3 prostate it was 5.58 µM. In the test with NCI-H226 lung, this molecule registered a TGI of 4.48 µM.
For `Cc1nc2nnc(CCCCCCCCc3nnc4nc(C)[nH]n34)n2[nH]1`, the TGI with K-562 leukemia, in the test on BT-549 breast, in the test with UO-31 renal, with SK-MEL-5 melanoma, with HCT-15 colon and in the test on UACC-257 melanoma was above 100 µM each time. Also, the TGI with PC-3 prostate and with NCI-H226 lung was above 100 µM each time.
As for `CCOc1c2c(cc3c1C(=O)c1c(OC)cccc1C3=O)C=C(OC)CC2`, the TGI in the test on HS 578T breast, in the test with K-562 leukemia, in the test with UO-31 renal, in the test with SK-MEL-5 melanoma, in the test on RPMI-8226 leukemia and in the test on HCT-15 colon was above 25 µM throughout. The TGI with UACC-257 melanoma, in the test with PC-3 prostate and in the test on NCI-H226 lung was above 25 µM each time.
`COc1ccc(Cl)cc1NC(=O)O/N=C(\Cl)C(C)C`: the TGI in the test on HS 578T breast is 69.2 µM; in the test with K-562 leukemia, 7.59 µM; in the test with BT-549 breast, 6.9 µM; with UO-31 renal, 28.5 µM; in the test with SK-MEL-5 melanoma it was above 44.5 µM; in the test on RPMI-8226 leukemia it was 4.61 µM. Further, the TGI amounted to 35.9 µM in the test on UACC-257 melanoma, 32.3 µM with PC-3 prostate and 33.2 µM with NCI-H226 lung.
For the molecule `CN1N=C(c2ccncc2)OC1c1ccc(C(F)(F)F)cc1` (stereo not drawn), the TGI in the test with HS 578T breast, in the test on K-562 leukemia, in the test on UO-31 renal, in the test on SK-MEL-5 melanoma, in the test on RPMI-8226 leukemia and in the test with HCT-15 colon was above 100 µM each time. In addition, the TGI in the test with UACC-257 melanoma, with PC-3 prostate and in the test on NCI-H226 lung was above 100 µM each time.
`CCN(CC)C(=O)N[C@@H](CC(C)C)C(=O)NC`: the TGI in the test with HS 578T breast, in the test with K-562 leukemia, in the test on BT-549 breast, with UO-31 renal, in the test with SK-MEL-5 melanoma and with RPMI-8226 leukemia was above 100 µM throughout. Moreover, the TGI in the test with HCT-15 colon and in the test on PC-3 prostate was above 100 µM in each case.
